The subject of the assay is MCH receptors. As to the kind of experiment: MCH receptor activity class (method not given). To be noted: class by percent of control at 10^-7 M or IC50.

`CN(C)c1nc(N[C@H]2CC[C@@H](CNCc3ccc(N(C)CCC#N)cc3)CC2)nc2c1CCCC2` [compound 1444]: the class is 3 (Class 3 The value of percent of control at 10^−7 M was more than 60% or the value of IC50 was more than 200 nM.). Consider `CN(C)c1nc(N[C@H]2CC[C@@H](CNCc3ccc(OCc4ccc(Br)cc4)cc3)CC2)nc2c1CCCC2` [compound 1445], for which the class is given as 3 (Class 3 The value of percent of control at 10^−7 M was more than 60% or the value of IC50 was more than 200 nM.). With `CCOc1c(Br)cc(Br)cc1CNC[C@H]1CC[C@@H](Nc2nc3c(c(N(C)C)n2)CCCC3)CC1` [compound 1446], the class was 3 (Class 3 The value of percent of control at 10^−7 M was more than 60% or the value of IC50 was more than 200 nM.). As for `CN(C)c1cc(N[C@H]2CC[C@@H](NCCc3ccc(Br)cc3)CC2)nc2ccccc12` [compound 1447], the class is given as 3 (Class 3 The value of percent of control at 10^−7 M was more than 60% or the value of IC50 was more than 200 nM.). Turning to `CN(C)c1cc(N[C@H]2CC[C@@H](NCCOc3ccccc3Cl)CC2)nc2ccccc12` [compound 1449], the class is reported as 3 (Class 3 The value of percent of control at 10^−7 M was more than 60% or the value of IC50 was more than 200 nM.). As for `Cc1c(C)c(C)c(CNC2CCC(Nc3cc(N(C)C)c4ccccc4n3)CC2)c(C)c1C` (centres unmarked) [compound 1451], the class is given as 3 (Class 3 The value of percent of control at 10^−7 M was more than 60% or the value of IC50 was more than 200 nM.). For `CCOc1cccc(CN[C@H]2CC[C@@H](Nc3cc(N(C)C)c4ccccc4n3)CC2)c1` [compound 1452], the class is recorded as 3 (Class 3 The value of percent of control at 10^−7 M was more than 60% or the value of IC50 was more than 200 nM.). `CN(C)c1cc(N[C@H]2CC[C@@H](NC[C@@H](COCc3ccccc3)OCc3ccccc3)CC2)nc2ccccc12` [compound 1453]: the class is listed as 3 (Class 3 The value of percent of control at 10^−7 M was more than 60% or the value of IC50 was more than 200 nM.). Regarding `COc1cc2ccccc2cc1CN[C@H]1CC[C@@H](Nc2cc(N(C)C)c3ccccc3n2)CC1` [compound 1454], the class is recorded as 3 (Class 3 The value of percent of control at 10^−7 M was more than 60% or the value of IC50 was more than 200 nM.). The result for `CN(C)c1cc(N[C@H]2CC[C@@H](NCCN(CCC#N)c3ccccc3)CC2)nc2ccccc12` [compound 1455] reads 2 (Class 2: The value of percent of control at 10^−7 M was from 40% to 60% or the value of IC′50 was from 50 nM to 200 nM.); that for `Cc1ccc(S(=O)(=O)N[C@H](CN[C@H]2CC[C@@H](Nc3cc(N(C)C)c4ccccc4n3)CC2)Cc2ccccc2)cc1` [compound 1456], 3 (Class 3 The value of percent of control at 10^−7 M was more than 60% or the value of IC50 was more than 200 nM.); that for `CN(C)c1cc(NC2CCC(NCC3CCCCC3C(O)c3ccccc3)CC2)nc2ccccc12` (centres unmarked) [compound 1457], 3 (Class 3 The value of percent of control at 10^−7 M was more than 60% or the value of IC50 was more than 200 nM.). The result for `COc1cc(CCN[C@H]2CC[C@@H](Nc3cc(N(C)C)c4ccccc4n3)CC2)cc(OC)c1` [compound 1458] reads 3 (Class 3 The value of percent of control at 10^−7 M was more than 60% or the value of IC50 was more than 200 nM.).

Consider `CN(C)c1cc(N[C@H]2CC[C@@H](NCCc3c(-c4ccccc4)[nH]c4ccccc34)CC2)nc2ccccc12` [compound 1459], for which the class is recorded as 2 (Class 2: The value of percent of control at 10^−7 M was from 40% to 60% or the value of IC′50 was from 50 nM to 200 nM.). Regarding `CN(C)c1cc(N[C@H]2CC[C@@H](NCC(c3ccc(Cl)cc3)c3ccc(Cl)cc3)CC2)nc2ccccc12` [compound 1460], the class is recorded as 3 (Class 3 The value of percent of control at 10^−7 M was more than 60% or the value of IC50 was more than 200 nM.). In the case of `C[C@H](CN[C@H]1CC[C@@H](Nc2cc(N(C)C)c3ccccc3n2)CC1)c1cccc(C(O)c2ccccc2)c1` (some centres unmarked) [compound 1461], the class is given as 3 (Class 3 The value of percent of control at 10^−7 M was more than 60% or the value of IC50 was more than 200 nM.). As for `CN(C)c1cc(N[C@H]2CC[C@@H](NCC3CN(C(c4ccccc4)c4ccccc4)C3)CC2)nc2ccccc12` [compound 1462], the class was 1 (Class 1: The value of percent of control at 10^−7 M was less than 40% or the value of IC50 was less than 50 nM.). With `CN(C)c1cc(N[C@H]2CC[C@@H](CNCCc3ccc(Br)cc3)CC2)nc2ccccc12` [compound 1463], the class is given as 3 (Class 3 The value of percent of control at 10^−7 M was more than 60% or the value of IC50 was more than 200 nM.).

As to `COc1ccc(CCCCNC[C@H]2CC[C@@H](Nc3cc(N(C)C)c4ccccc4n3)CC2)cc1` [compound 1464], the class was 3 (Class 3 The value of percent of control at 10^−7 M was more than 60% or the value of IC50 was more than 200 nM.). On to `CN(C)c1cc(N[C@H]2CC[C@@H](CNCCCCCCc3ccccc3)CC2)nc2ccccc12` [compound 1465], for which the class is 3 (Class 3 The value of percent of control at 10^−7 M was more than 60% or the value of IC50 was more than 200 nM.).

As for `Cc1cc(C)c(CCNC[C@H]2CC[C@@H](Nc3cc(N(C)C)c4ccccc4n3)CC2)c(C)c1` [compound 1466], the class is listed as 3 (Class 3 The value of percent of control at 10^−7 M was more than 60% or the value of IC50 was more than 200 nM.). With `CN(C)c1cc(N[C@H]2CC[C@@H](CNCCCCCCCCc3ccccc3)CC2)nc2ccccc12` [compound 1467], the class is given as 3 (Class 3 The value of percent of control at 10^−7 M was more than 60% or the value of IC50 was more than 200 nM.). As to `CN(C)c1cc(N[C@H]2CC[C@@H](CNCCc3ccc(C(C)(C)C)cc3)CC2)nc2ccccc12` [compound 1468], the class is on record as 3 (Class 3 The value of percent of control at 10^−7 M was more than 60% or the value of IC50 was more than 200 nM.). `CN(C)c1cc(N[C@H]2CC[C@@H](CNCCCC#Cc3ccccc3)CC2)nc2ccccc12` [compound 1469]: the class is given as 3 (Class 3 The value of percent of control at 10^−7 M was more than 60% or the value of IC50 was more than 200 nM.). Turning to `COc1ccccc1CCNC[C@H]1CC[C@@H](Nc2cc(N(C)C)c3ccccc3n2)CC1` [compound 1470], the class is 3 (Class 3 The value of percent of control at 10^−7 M was more than 60% or the value of IC50 was more than 200 nM.). On to `CN(C)c1cc(N[C@H]2CC[C@@H](CNCCCOc3ccccc3)CC2)nc2ccccc12` [compound 1471], for which the class is reported as 3 (Class 3 The value of percent of control at 10^−7 M was more than 60% or the value of IC50 was more than 200 nM.). As to `CN(C)c1cc(N[C@H]2CC[C@@H](CNCc3c(F)c(F)cc(F)c3F)CC2)nc2ccccc12` [compound 1472], the class is 3 (Class 3 The value of percent of control at 10^−7 M was more than 60% or the value of IC50 was more than 200 nM.).

For the compound `CN(C)c1cc(N[C@H]2CC[C@@H](CNCc3cc(Cl)ccc3Cl)CC2)nc2ccccc12` [compound 1473], the class is 3 (Class 3 The value of percent of control at 10^−7 M was more than 60% or the value of IC50 was more than 200 nM.). As for `COc1ccc(Cl)cc1CNC[C@H]1CC[C@@H](Nc2cc(N(C)C)c3ccccc3n2)CC1` [compound 1474], the figure is 3 (Class 3 The value of percent of control at 10^−7 M was more than 60% or the value of IC50 was more than 200 nM.); as for `COc1cc(Cl)ccc1CNC[C@H]1CC[C@@H](Nc2cc(N(C)C)c3ccccc3n2)CC1` [compound 1475], 3 (Class 3 The value of percent of control at 10^−7 M was more than 60% or the value of IC50 was more than 200 nM.); as for `Cc1ccc(CNC[C@H]2CC[C@@H](Nc3cc(N(C)C)c4ccccc4n3)CC2)cc1I` [compound 1476], 3 (Class 3 The value of percent of control at 10^−7 M was more than 60% or the value of IC50 was more than 200 nM.). For the compound `C[C@@H](CNC[C@H]1CC[C@@H](Nc2cc(N(C)C)c3ccccc3n2)CC1)N(Cc1ccccc1)Cc1ccccc1` [compound 1477], the class is listed as 3 (Class 3 The value of percent of control at 10^−7 M was more than 60% or the value of IC50 was more than 200 nM.). On to `CCCc1c(CNC[C@H]2CC[C@@H](Nc3cc(N(C)C)c4ccccc4n3)CC2)cnn1-c1ccccc1` [compound 1478], for which the class is 1 (Class 1: The value of percent of control at 10^−7 M was less than 40% or the value of IC50 was less than 50 nM.). Turning to `CCCc1c(CNC[C@H]2CC[C@@H](Nc3cc(N(C)C)c4ccccc4n3)CC2)cnn1-c1ccc(Cl)cc1` [compound 1479], the class is on record as 1 (Class 1: The value of percent of control at 10^−7 M was less than 40% or the value of IC50 was less than 50 nM.).

Turning to `CN(C)c1cc(N[C@H]2CC[C@@H](CNCCCCc3ccc([N+](=O)[O-])cc3)CC2)nc2ccccc12` [compound 1480], the class was 3 (Class 3 The value of percent of control at 10^−7 M was more than 60% or the value of IC50 was more than 200 nM.).

Consider `CN(C)c1nc(N[C@H]2CC[C@@H](NCCc3ccc(Br)cc3)CC2)nc2c1CCCC2` [compound 1481], for which the class is 3 (Class 3 The value of percent of control at 10^−7 M was more than 60% or the value of IC50 was more than 200 nM.).

On to `CN(C)c1nc(N[C@H]2CC[C@@H](NCCc3cccc(Cl)c3)CC2)nc2c1CCCC2` [compound 1482], for which the class is 3 (Class 3 The value of percent of control at 10^−7 M was more than 60% or the value of IC50 was more than 200 nM.). As to `COC(CN[C@H]1CC[C@@H](Nc2nc3c(c(N(C)C)n2)CCCC3)CC1)c1ccccc1` (some centres unmarked) [compound 1483], the class is listed as 3 (Class 3 The value of percent of control at 10^−7 M was more than 60% or the value of IC50 was more than 200 nM.). The result for `COC(CNC1CCC(Nc2nc3c(c(N(C)C)n2)CCCC3)CC1)c1ccccc1` (centres unmarked) [compound 1484] reads 3 (Class 3 The value of percent of control at 10^−7 M was more than 60% or the value of IC50 was more than 200 nM.); that for `Cc1c(C)c(C)c(CNC2CCC(Nc3nc4c(c(N(C)C)n3)CCCC4)CC2)c(C)c1C` (centres unmarked) [compound 1485], 2 (Class 2: The value of percent of control at 10^−7 M was from 40% to 60% or the value of IC′50 was from 50 nM to 200 nM.); that for `CCOc1cccc(CN[C@H]2CC[C@@H](Nc3nc4c(c(N(C)C)n3)CCCC4)CC2)c1` [compound 1486], 3 (Class 3 The value of percent of control at 10^−7 M was more than 60% or the value of IC50 was more than 200 nM.).

The values are drawn from US20050197350A1, “Novel quinoline, tetrahydroquinazoline, and pyrimidine derivatives and methods of treatment related to the use thereof” (TAISHO PHARMACEUTICAL CO., LTD., priority 2003, published 2005).
